Source: PubChem BioAssay (NCI)
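48-hour exposure; five concentrations; linearly interpolated endpoints. GI50: concentration for 50% inhibition of growth. The concentration for full growth arrest is given as TGI.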

Columns and labels:
Assay in all cases: NCI-60 cell line screen, 48 h
HCT-15 colon = test system: HCT-15 colon
HOP-62 NSCLC = test system: HOP-62 NSCLC
HOP-92 NSCLC = test system: HOP-92 NSCLC
NCI/ADR-RES ovarian = test system: NCI/ADR-RES ovarian
SF-539 CNS = test system: SF-539 CNS
HCT-116 colon = test system: HCT-116 colon
HL-60(TB) leukemia = test system: HL-60(TB) leukemia
K-562 leukemia = test system: K-562 leukemia
KM12 colon = test system: KM12 colon
OVCAR-3 ovarian = test system: OVCAR-3 ovarian

| Structure (SMILES) | GI50 (HCT-15 colon) [µM] | TGI (HCT-15 colon) [µM] | GI50 (HOP-62 NSCLC) [µM] | TGI (HOP-62 NSCLC) [µM] | GI50 (HOP-92 NSCLC) [µM] | TGI (HOP-92 NSCLC) [µM] | GI50 (NCI/ADR-RES ovarian) [µM] | TGI (NCI/ADR-RES ovarian) [µM] | GI50 (SF-539 CNS) [µM] | TGI (SF-539 CNS) [µM] | GI50 (HCT-116 colon) [µM] | TGI (HCT-116 colon) [µM] | GI50 (HL-60(TB) leukemia) [µM] | TGI (HL-60(TB) leukemia) [µM] | GI50 (K-562 leukemia) [µM] | TGI (K-562 leukemia) [µM] | GI50 (KM12 colon) [µM] | TGI (KM12 colon) [µM] | GI50 (OVCAR-3 ovarian) [µM] | TGI (OVCAR-3 ovarian) [µM] |
| --- | --- | --- | --- | --- | --- | --- | --- | --- | --- | --- | --- | --- | --- | --- | --- | --- | --- | --- | --- | --- |
| COc1ccc(C2CC(c3cc(OC)c(OC)c(OC)c3)=NN2C(C)=O)cc1OCC(=O)Nc1nc2ccc(C(F)(F)F)cc2s1 (stereo not drawn) | 9.26 | > 100 | 2.2 | 5.58 | 1.7 | 4.02 | 3.13 | > 100 | 1.75 | 3.42 |  |  |  |  |  |  |  |  |  |  |
| CC(C)(C)c1n[nH]c(=S)n(/N=C/c2ccc(F)c(Oc3ccccc3)c2)c1=O | 37.7 | > 100 | 90.1 | > 100 | 27.3 | > 100 | 35.1 | > 100 | 43.7 | > 100 | > 100 | > 100 | 61.9 | > 100 | 42.1 | > 100 | 35.9 | > 100 | 28.3 | 95.7 |
| O=C(C1CCCCC1)[C@@H]1[C@]2(C(=O)NC3CCCCC32)[C@@H]2CCCN2[C@@]12C(=O)NC1CCC(Cl)CC12 (stereo partly drawn) | 56.5 | 211 | 123 | 287 |  |  | 127 | 310 | 121 | 255 | 71.6 | 208 | 35.3 | 176 | 41.2 | 220 | 130 | 273 | 78.2 | 210 |
| c1ccc2c(c1)c(NCCCCN1CCCCC1)cc1c3ccccc3c(NCCCCN3CCCCC3)cc21 | 22.8 | 47.5 | 10.9 | 26 | 20.4 | 52.7 | 16.6 | 38.4 | 16.5 | 37.5 | 5.22 | 32.7 | 19.7 | > 100 | 7.85 | > 100 | 2.97 | 8.98 | 19.5 | 87.2 |
| O=C(/C(=C/c1ccccc1)CN1CCCCC1)c1ccccc1 | 0.617 | 3.34 | 2.88 | 9.93 | 2.68 | 6.74 | 1.06 | 4.64 | 2.8 | 10.1 | 0.468 | 1.44 | 1.22 | 10.2 | 0.566 | > 33.6 | 2.09 | 6.88 | 0.679 | 2.16 |
| C[C@]12CCC3[C@@H](CC[C@@H]4c5nonc5CC[C@]34C)C1CCC(=O)N2 (stereo partly drawn) |  | > 100 |  | > 100 | 40.4 | > 95.1 | > 100 | > 100 |  | > 100 |  | > 100 |  | > 100 |  | > 100 |  | > 100 |  | > 100 |
| N#Cc1c(N/N=C/c2c(Cl)cccc2Cl)nc(N)nc1N1CCOCC1 | 4.52 | 57.4 | 13.9 | > 100 | 12.4 | > 100 | 9.98 | 64.6 | 7.24 | 30.4 | 4.72 | 31.3 |  |  | 2.34 | 11.3 | 4.06 | 71.7 | 3.6 | > 100 |
